± gives the expanded uncertainty stated by the source.
Test: xn = mol fraction of the nth substance listed
Conditions: for surface tension liquid-gas: Wilhelmy-plate method; for viscosity / mass density: 101 kPa, Liquid; for viscosity: Falling or rolling sphere viscometry; for mass density: Vibrating tube method

C1CCOCC1 [tetrahydropyran] + CC(C)O
Conditions	mass density [kg/m3]	surface tension liquid-gas [mN/m]	viscosity [mPa·s]
293.15 K, x2 = 0	884.27 ± 0.23	27.5 ± 0.4	0.86 ± 0.011
293.15 K, x2 = 0.0501	879.89 ± 0.23	27.2 ± 0.4	0.852 ± 0.011
293.15 K, x2 = 0.0999	875.5 ± 0.22	26.9 ± 0.4	0.845 ± 0.011
293.15 K, x2 = 0.1499	871.09 ± 0.21	26.6 ± 0.4	0.849 ± 0.011
293.15 K, x2 = 0.2003	866.62 ± 0.21	26.3 ± 0.4	0.85 ± 0.011
293.15 K, x2 = 0.2506	862.13 ± 0.2	26 ± 0.4	0.855 ± 0.011
293.15 K, x2 = 0.2999	857.7 ± 0.2	25.7 ± 0.4	0.864 ± 0.011
293.15 K, x2 = 0.35	853.13 ± 0.19	25.4 ± 0.4	0.877 ± 0.011
293.15 K, x2 = 0.3999	848.52 ± 0.19	25 ± 0.4	0.899 ± 0.011
293.15 K, x2 = 0.4499	843.87 ± 0.18	24.7 ± 0.4	0.922 ± 0.011
293.15 K, x2 = 0.5001	839.07 ± 0.18	24.4 ± 0.4	0.947 ± 0.011
293.15 K, x2 = 0.5502	834.22 ± 0.17	24 ± 0.4	0.983 ± 0.011
293.15 K, x2 = 0.6001	829.28 ± 0.17	23.7 ± 0.4	1.032 ± 0.012
293.15 K, x2 = 0.6499	824.23 ± 0.17	23.4 ± 0.4	1.095 ± 0.012
293.15 K, x2 = 0.7001	819.03 ± 0.16	23.1 ± 0.4	1.164 ± 0.012
293.15 K, x2 = 0.7499	813.78 ± 0.16	22.7 ± 0.4	1.256 ± 0.013
293.15 K, x2 = 0.8	808.34 ± 0.16	22.4 ± 0.4	1.378 ± 0.014
293.15 K, x2 = 0.8501	802.8 ± 0.16	22.1 ± 0.4	1.535 ± 0.015
293.15 K, x2 = 0.9001	797.15 ± 0.15	21.9 ± 0.4	1.739 ± 0.016
293.15 K, x2 = 0.9499	791.36 ± 0.15	21.6 ± 0.4	2.013 ± 0.018
303.15 K, x2 = 0	874.07 ± 0.23	26.2 ± 0.4	0.749 ± 0.01
303.15 K, x2 = 0.0502	869.6 ± 0.23	26 ± 0.4	0.737 ± 0.01
303.15 K, x2 = 0.1001	865.24 ± 0.22	25.7 ± 0.4	0.729 ± 0.01
303.15 K, x2 = 0.1501	860.87 ± 0.22	25.4 ± 0.4	0.728 ± 0.01
303.15 K, x2 = 0.1998	856.52 ± 0.21	25.1 ± 0.4	0.725 ± 0.01
303.15 K, x2 = 0.2499	852.09 ± 0.2	24.8 ± 0.4	0.729 ± 0.01
303.15 K, x2 = 0.3	847.66 ± 0.2	24.5 ± 0.4	0.737 ± 0.01
303.15 K, x2 = 0.3499	843.17 ± 0.19	24.2 ± 0.4	0.75 ± 0.01
303.15 K, x2 = 0.4001	838.59 ± 0.19	23.9 ± 0.4	0.76 ± 0.01
303.15 K, x2 = 0.4501	833.98 ± 0.18	23.6 ± 0.4	0.779 ± 0.01
303.15 K, x2 = 0.5001	829.29 ± 0.18	23.3 ± 0.4	0.8 ± 0.01
303.15 K, x2 = 0.55	824.54 ± 0.18	22.9 ± 0.4	0.825 ± 0.01
303.15 K, x2 = 0.6	819.65 ± 0.17	22.6 ± 0.4	0.861 ± 0.011
303.15 K, x2 = 0.65	814.69 ± 0.17	22.3 ± 0.4	0.905 ± 0.011
303.15 K, x2 = 0.6999	809.62 ± 0.17	22 ± 0.4	0.958 ± 0.011
303.15 K, x2 = 0.7499	804.47 ± 0.16	21.7 ± 0.4	1.021 ± 0.011
303.15 K, x2 = 0.8001	799.17 ± 0.16	21.4 ± 0.4	1.108 ± 0.012
303.15 K, x2 = 0.85	793.77 ± 0.16	21.2 ± 0.4	1.214 ± 0.013
303.15 K, x2 = 0.8998	788.25 ± 0.16	20.9 ± 0.4	1.356 ± 0.014
303.15 K, x2 = 0.9499	782.59 ± 0.16	20.6 ± 0.4	1.533 ± 0.015
313.15 K, x2 = 0	863.76 ± 0.47	25.1 ± 0.4	0.658 ± 0.01
313.15 K, x2 = 0.05	859.32 ± 0.46	24.9 ± 0.4	0.645 ± 0.01
313.15 K, x2 = 0.1	854.97 ± 0.45	24.6 ± 0.4	0.639 ± 0.01
313.15 K, x2 = 0.1501	850.64 ± 0.44	24.3 ± 0.4	0.634 ± 0.01
313.15 K, x2 = 0.2	846.27 ± 0.42	24.1 ± 0.4	0.633 ± 0.01
313.15 K, x2 = 0.2499	841.92 ± 0.41	23.8 ± 0.4	0.635 ± 0.01
313.15 K, x2 = 0.2997	837.55 ± 0.39	23.5 ± 0.4	0.638 ± 0.01
313.15 K, x2 = 0.3499	833.09 ± 0.38	23.2 ± 0.4	0.646 ± 0.01
313.15 K, x2 = 0.4	828.58 ± 0.36	22.9 ± 0.4	0.656 ± 0.01
313.15 K, x2 = 0.4504	823.98 ± 0.34	22.6 ± 0.4	0.667 ± 0.01
313.15 K, x2 = 0.5001	819.37 ± 0.33	22.3 ± 0.4	0.682 ± 0.01
313.15 K, x2 = 0.55	814.68 ± 0.31	22 ± 0.4	0.704 ± 0.01
313.15 K, x2 = 0.5999	809.9 ± 0.29	21.7 ± 0.4	0.725 ± 0.01
313.15 K, x2 = 0.65	805.04 ± 0.28	21.4 ± 0.4	0.758 ± 0.01
313.15 K, x2 = 0.7001	800.07 ± 0.26	21.1 ± 0.4	0.796 ± 0.01
313.15 K, x2 = 0.7502	794.95 ± 0.24	20.8 ± 0.4	0.844 ± 0.011
313.15 K, x2 = 0.7999	789.8 ± 0.22	20.6 ± 0.4	0.901 ± 0.011
313.15 K, x2 = 0.85	784.49 ± 0.2	20.3 ± 0.4	0.976 ± 0.011
313.15 K, x2 = 0.8998	779.1 ± 0.18	20.1 ± 0.4	1.069 ± 0.012
313.15 K, x2 = 0.9498	773.58 ± 0.17	19.8 ± 0.4	1.187 ± 0.012
323.15 K, x2 = 0	666.8 ± 0.83	23.8 ± 0.4	0.565 ± 0.009
323.15 K, x2 = 0.05	–	23.5 ± 0.4	0.562 ± 0.009
323.15 K, x2 = 0.0501	667.65 ± 0.8	–	–
323.15 K, x2 = 0.1	669.08 ± 0.78	23.3 ± 0.4	0.558 ± 0.009
323.15 K, x2 = 0.15	670.98 ± 0.76	–	–
323.15 K, x2 = 0.1501	–	23.1 ± 0.4	0.553 ± 0.009
323.15 K, x2 = 0.1998	673.08 ± 0.73	–	–
323.15 K, x2 = 0.2	–	22.8 ± 0.4	0.55 ± 0.009
323.15 K, x2 = 0.2499	–	22.6 ± 0.4	0.55 ± 0.009
323.15 K, x2 = 0.25	675.42 ± 0.7	–	–
323.15 K, x2 = 0.2997	–	22.3 ± 0.4	0.553 ± 0.009
323.15 K, x2 = 0.3	677.99 ± 0.68	–	–
323.15 K, x2 = 0.3499	–	22 ± 0.4	0.557 ± 0.009
323.15 K, x2 = 0.35	680.86 ± 0.65	–	–
323.15 K, x2 = 0.4	683.93 ± 0.62	21.8 ± 0.4	0.563 ± 0.009
323.15 K, x2 = 0.4499	687.34 ± 0.58	–	–
323.15 K, x2 = 0.4504	–	21.5 ± 0.4	0.571 ± 0.009
323.15 K, x2 = 0.5	691.07 ± 0.55	–	–
323.15 K, x2 = 0.5001	–	21.2 ± 0.4	0.582 ± 0.009
323.15 K, x2 = 0.5501	695.17 ± 0.52	20.9 ± 0.4	0.596 ± 0.009
323.15 K, x2 = 0.6	699.74 ± 0.48	20.7 ± 0.4	0.615 ± 0.009
323.15 K, x2 = 0.65	704.78 ± 0.44	20.4 ± 0.4	0.635 ± 0.01
323.15 K, x2 = 0.6999	–	20.1 ± 0.4	0.661 ± 0.01
323.15 K, x2 = 0.7	710.22 ± 0.4	–	–
323.15 K, x2 = 0.7499	716.22 ± 0.36	–	–
323.15 K, x2 = 0.7502	–	19.9 ± 0.4	0.697 ± 0.01
323.15 K, x2 = 0.7999	722.88 ± 0.32	–	–
323.15 K, x2 = 0.8002	–	19.6 ± 0.4	0.739 ± 0.01
323.15 K, x2 = 0.85	730.48 ± 0.28	–	–
323.15 K, x2 = 0.8501	–	19.4 ± 0.4	0.79 ± 0.01
323.15 K, x2 = 0.8998	–	19.2 ± 0.4	0.85 ± 0.011
323.15 K, x2 = 0.9	738.82 ± 0.23	–	–
323.15 K, x2 = 0.95	748.16 ± 0.19	–	–
323.15 K, x2 = 0.9501	–	19 ± 0.4	0.927 ± 0.011

Reference: the NIST ThermoML archive (doi:10.1016/j.jct.2010.08.019)
